Measurements as given in patent US20250339409A1, “USES OF PAN BET INHIBITORS” (VYNE THERAPEUTICS INC., priority 2021, published 2025).
“And” between values parts separate entries of the source, which are not always exact repeats. Equal values may be shown once. Read-outs that look alike come from different tables or passages of the source.

Assays:
[1] = tested on: IL4, IL13, IL31, CCL17, CCL26, CCL2 gene expression in Th2 stimulated human skin; assay: Th2 stimulated human skin explants, RT-qPCR of biomarkers; type: cell-based; conditions: for inhibition at 0.01 µM / inhibition at 0.04 µM / inhibition at 0.16 µM / inhibition at 0.63 µM / inhibition at 2.5 µM / inhibition at 10 µM: Homo sapiens, calculated to Th2 stimulated control; for inhibition at 2.5 µM: 2.50 μM
Description: Human skin biopsy tissue was stimulated to induce a Th17 immuno-phenotype using a method derived from Feghali-Bostwick et al. Induction of a Th17 phenotype in human skin—a mimic of dermal inflammatory diseases, Methods and Protocols, 2, 45 (2019). The pharmacodynamic assay described therein involves a similar paradigm to elicit a Th2 response and is used to evaluate the therapeutic potential of the active compounds (e.g., BETi1; and
Freshly excised healthy human skin tissue from abdominoplasties is defatted, cleaned and sectioned into 7 mm biopsies. The biopsies are placed in Transwell® inserts with the epidermis apical and exposed to air and the dermis submerged in media in the basal chamber. The biopsies are pre-treated overnight at 37° C., 5% CO2 with different compounds and controls added to the media in the basal chamber.
The next day, contents of the basal chamber is replaced with fresh media containing the test compound (listed below) and a stimulation cocktail for either Th2 inflammation (proprietary of service provider cocktail) or Th17 inflammation (mix of antibodies against CD3, CD28, IL-4, IFNγ and recombinant IL-1β, IL-6, IL-21, TGF-β). The biopsies are incubated at 37° C., 5% CO2 for a further 24 hrs.
A list of all the treatments is provided below: • 1. Untreated control (for both stimulations) • 2. Th2 stimulated control • 3. Th17 stimulated control • 4. Th2+BETia at 0.01, 0.04, 0.16, 0.63, 2.50, and 10 μM • 5. Th2+BETi1 at 0.01, 0.04, 0.16, 0.63, 2.50, and 10 μM • 6. Th2+Ruxolitinib at 0.01, 0.04, 0.16, 0.63, 2.50, and 10 μM • 7. Th2+betamethasone valerate 210 μM (equivalent to 0.01%) • 8. Th17+BETia at 10 μM • 9. Th17+BETi1 at 10 μM • 10. Th17+Ruxolitinib at 10 μM • 11. Th17+betamethasone valerate 210 μM (equivalent to 0.01%)
After harvesting, the biopsies are cut in half, and one half is homogenized and used for RNA extraction by standard methods and inflammatory pathways is assessed by RT-qPCR. The ability of BETi1 or BETia to inhibit the activity of up to six biomarkers per stimulation is reported as percent activity calculated to stimulated control and fold change in gene expression calculated to untreated control with respect to Th2 (IL4, IL13, IL31, CCL17, CCL26, CCL2) and Th17 (CXCL10, IL17α, IL22, IL36γ, CCL20, SerpinB4). Statistical analysis is performed on data sets from all 3 donors combined and compares the percent inhibition of each biomarker by each treatment calculated to its respective vehicle.
qPCR values were calculated using the relative quantification approach outlined by Livak, et al (2001) (Section 9, Reference 2). The Ct values (threshold cycle) defined as the fractional cycle number at which the amount of amplified target reaches a fixed threshold, were normalised to the Ct value of an internal biomarker or ‘housekeeping gene’ (GAPDH). The higher limit of detection was set at a Ct value of 40, and any target having not reached Ct by 40 cycles was set to this value. The delta Ct values (dt(Ct)) refers to the Ct of the gene of interest minus the Ct of the internal biomarker. The ddt(Ct) is the dt(Ct) value of the gene minus the average dt(Ct) value of the untreated samples. The ddt(Ct) is converted to power by the equation; =power(2,dt(Ct)). Fold change was calculated as ratio of the power of the gene of interest divided by the average power of the untreated samples. This normalizes the untreated samplers to a value of 1. For the comparison of multiple skin donors, the stimulated samples were normalized to 100% maximum activity (such to normalize variability between different skin donors). Percent activity was calculated as the percent increase or decrease in stimulation compared to the stimulated samples set at 100% maximum activity. Percent change was calculated as: Inhibition=(100−(avg % activity/stimulated)*100). Statistical analysis was performed using One-way ANOVA with Dunnett's Multiple Comparisons (non parametric). […]

[2] = tested on: anti collagen antibodies induced arthritis (ACAIA); assay: ACAIA mice: hot plate withdrawal latency; type: in vivo, Balb/c mice
Description: On days 0, 5 and 11 animals are placed on hot plate apparatus (53±1° C.) and the time until the first response is observed and recorded.

hydroxyproline = assay: Bleomycin mice: hydroxyproline content of lung tissue (colorimetric assay); type: in vivo, C57BL/6 male mice; conditions: for Mean Diff., Hydroxyproline Level of Lung, Group 2 Bleo/Veh vs. BETi1 group: One Way ANOVA, Dunnett's; for Mean Diff., Hydroxyproline Level of Lung, Group 2 Bleo/Veh vs. BETi1 group / Mean 2 (group mean), Hydroxyproline Level of Lung: in µg/mg
Description: The left lobe of lung tissue is collected, and snap frozen for hydroxyproline levels analysis. Hydroxyproline (4-hydroxyproline, Hyp) is a common nonproteinogenic amino acid. Hydroxyproline in tissue hydrolysates is an indirect measure of the amount of collagen present. Hydroxyproline content of lung tissue is measured by colorimetric assay.

[3] = Th2 stimulated human skin explants, 10 μM, compared to untreated skin

## Cn1cc(-c2cccc(O)c2Oc2ccccc2)c2cc[nH]c2c1=O [BETi1]
[1]; read-out: % Inhibition CCL17
  inhibition at 0.01 µM: 22.4%
  inhibition at 0.04 µM: < 0%
  inhibition at 0.63 µM: 48%
  inhibition at 2.5 µM: 62.3%
[1]; read-out: % Inhibition CCL26
  inhibition at 0.01 µM: 31.3%
  inhibition at 0.04 µM: 10.9%
  inhibition at 0.16 µM: 15.2%
  inhibition at 0.63 µM: < 0%
  inhibition at 2.5 µM: < 0%
[1]; read-out: % Inhibition IL31
  inhibition at 0.01 µM: < 0%
  inhibition at 0.04 µM: < 0%
  inhibition at 0.16 µM: ~74%
[1]; read-out: % inhibition CCL2
  inhibition at 0.01 µM: < 0%
  inhibition at 0.04 µM: < 0%
  inhibition at 0.16 µM: 40%
  inhibition at 0.63 µM: 34.9%
  inhibition at 2.5 µM: 76.5%
[1]; read-out: % inhibition IL4
  inhibition at 0.01 µM: 20.4%
  inhibition at 0.04 µM: 51.8%
  inhibition at 0.16 µM: 83.4%
  inhibition at 0.63 µM: ~80%
  inhibition at 2.5 µM: 82%
[1]; read-out: % inhibition IL13
  inhibition at 0.01 µM: 22.4%
  inhibition at 0.04 µM: 3%
  inhibition at 0.16 µM: 76.3%
  inhibition at 0.63 µM: ~84%
  inhibition at 2.5 µM: 90.2%
[1]; 10 μM, read-out: % Inhibition CCL17
  inhibition at 10 µM: ~62%
[1]; 10 μM, read-out: % Inhibition CCL26
  inhibition at 10 µM: < 0%
[1]; 10 μM, read-out: % Inhibition IL31
  inhibition at 10 µM: 95.4%
[1]; 10 μM, read-out: % inhibition IL4
  inhibition at 10 µM: 74.9%
[1]; 10 μM, read-out: % inhibition IL13
  inhibition at 10 µM: 93.3%
[1]; Th2-mediated stimulation, compared to stimulated and untreated
  highest percent inhibition of IL4, IL13, IL31, and CCL2 gene expression: 76-85%
[1]; [3]
  inhibition of interleukin IL-4 expression: 75%
  inhibition of interleukin IL-13 expression: 93%
  inhibition of interleukin IL-31 expression: 95%
[1]; human skin induced to exhibit Th2 or Th17 phenotype
  reduction in CXCL10, IL-17a, IL-36γ, IL-4, IL-13 or IL-31 levels: > 75%
[2]; 0.01 mg/kg IA, Baseline
  Hot Plate Change in withdrawal latency (Avg.): 11.57 s
[2]; 0.01 mg/kg IA, Day 5
  Hot Plate Change in withdrawal latency (Avg.): 11.86 s
[2]; 0.01 mg/kg IA, Day 11
  Hot Plate Change in withdrawal latency (Avg.): 12.00 s
[2]; 0.1 mg/kg IA, Baseline
  Hot Plate Change in withdrawal latency (Avg.): 11.14 s
[2]; 0.1 mg/kg IA, Day 5
  Hot Plate Change in withdrawal latency (Avg.): 10.43 s
[2]; 0.1 mg/kg IA, Day 11
  Hot Plate Change in withdrawal latency (Avg.): 9.57 s
[2]; 1 mg/kg IA, Baseline
  Hot Plate Change in withdrawal latency (Avg.): 11.71 s
[2]; 1 mg/kg IA, Day 5
  Hot Plate Change in withdrawal latency (Avg.): 11.57 s
[2]; 1 mg/kg IA, Day 11
  Hot Plate Change in withdrawal latency (Avg.): 11.29 s
[2]; 10 mg/kg IA, Baseline
  Hot Plate Change in withdrawal latency (Avg.): 10.57 s
[2]; 10 mg/kg IA, Day 5
  Hot Plate Change in withdrawal latency (Avg.): 12.00 s
[2]; 10 mg/kg IA, Day 11
  Hot Plate Change in withdrawal latency (Avg.): 11.00 s
hydroxyproline; 3 mg/mL (group 5)
  reduction in hydroxyproline levels: statistically significant compared to treatment with vehicle
hydroxyproline; 0.06, 0.6 and 3 mg/mL, vs bleomycin and vehicle
  hydroxyproline levels: demonstrated a decrease in hydroxyproline levels
hydroxyproline; Group 3 Bleo/BETi1 0.06 mg/mL
  Hydroxyproline Level of Lung, Mean: 0.2248 μg/mg tissue
  Hydroxyproline Level of Lung, individual animals: 0.1154 μg/mg tissue and 0.2842 μg/mg tissue and 0.3149 μg/mg tissue and 0.2968 μg/mg tissue and 0.3372 μg/mg tissue and 0.1322 μg/mg tissue and 0.1196 μg/mg tissue and 0.1977 μg/mg tissue
  Mean Diff., Hydroxyproline Level of Lung, Group 2 Bleo/Veh vs. BETi1 group: 0.08927
  Mean 2 (group mean), Hydroxyproline Level of Lung: 0.2248
hydroxyproline; Group 4 Bleo/BETi1 0.6 mg/mL
  Hydroxyproline Level of Lung, Mean: 0.2535 μg/mg tissue
  Hydroxyproline Level of Lung, individual animals: 0.1377 μg/mg tissue and 0.3400 μg/mg tissue and 0.2954 μg/mg tissue and 0.1503 μg/mg tissue and 0.2745 μg/mg tissue and 0.3191 μg/mg tissue and 0.2242 μg/mg tissue and 0.2703 μg/mg tissue and 0.1029 μg/mg tissue and 0.2298 μg/mg tissue and 0.3121 μg/mg tissue and 0.2982 μg/mg tissue and 0.3414 μg/mg tissue
  Mean Diff., Hydroxyproline Level of Lung, Group 2 Bleo/Veh vs. BETi1 group: 0.0605
  Mean 2 (group mean), Hydroxyproline Level of Lung: 0.2535
hydroxyproline; Group 5 Bleo/BETi1 3 mg/mL
  Hydroxyproline Level of Lung, Mean: 0.2003 μg/mg tissue
  Hydroxyproline Level of Lung, individual animals: 0.1935 μg/mg tissue and 0.0596 μg/mg tissue and 0.2200 μg/mg tissue and 0.2800 μg/mg tissue and 0.2731 μg/mg tissue and 0.1308 μg/mg tissue and 0.2466 μg/mg tissue and 0.1112 μg/mg tissue and 0.3107 μg/mg tissue and 0.2382 μg/mg tissue and 0.3024 μg/mg tissue and 0.1349 μg/mg tissue and 0.1029 μg/mg tissue
  Mean Diff., Hydroxyproline Level of Lung, Group 2 Bleo/Veh vs. BETi1 group: 0.1137
  Mean 2 (group mean), Hydroxyproline Level of Lung: 0.2003
